In patent US10758534B2 (Vertex Pharmaceuticals Incorporated, priority 2014, dated 2020):

molecular target: T1, F508del (Homo sapiens, UniProt P13569, DEL508-508); test: Protocol 2: FRET membrane potential optical assay (VIPR), identification of correction compounds; type: cell-based; conditions: F508del CFTR modulator activity; compounds of Table 1; read-out: EC30
T1 construct: expressed in transfected cells
How it was run: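 NIH3T3 mouse fibroblasts stably expressing F508del-CFTR incubated with compound 16 h at 37 °C in serum-free medium, then loaded with CC2-DMPE/DiSBAC2(3) FRET dyes. Channel activated with 10 μM forskolin plus 20 μM genistein in Cl⁻-free (gluconate) bath; depolarisation from Cl⁻ efflux read on VIPR II.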

T1 sequence (P13569 with tags, fused parts or gaps DEL508-508): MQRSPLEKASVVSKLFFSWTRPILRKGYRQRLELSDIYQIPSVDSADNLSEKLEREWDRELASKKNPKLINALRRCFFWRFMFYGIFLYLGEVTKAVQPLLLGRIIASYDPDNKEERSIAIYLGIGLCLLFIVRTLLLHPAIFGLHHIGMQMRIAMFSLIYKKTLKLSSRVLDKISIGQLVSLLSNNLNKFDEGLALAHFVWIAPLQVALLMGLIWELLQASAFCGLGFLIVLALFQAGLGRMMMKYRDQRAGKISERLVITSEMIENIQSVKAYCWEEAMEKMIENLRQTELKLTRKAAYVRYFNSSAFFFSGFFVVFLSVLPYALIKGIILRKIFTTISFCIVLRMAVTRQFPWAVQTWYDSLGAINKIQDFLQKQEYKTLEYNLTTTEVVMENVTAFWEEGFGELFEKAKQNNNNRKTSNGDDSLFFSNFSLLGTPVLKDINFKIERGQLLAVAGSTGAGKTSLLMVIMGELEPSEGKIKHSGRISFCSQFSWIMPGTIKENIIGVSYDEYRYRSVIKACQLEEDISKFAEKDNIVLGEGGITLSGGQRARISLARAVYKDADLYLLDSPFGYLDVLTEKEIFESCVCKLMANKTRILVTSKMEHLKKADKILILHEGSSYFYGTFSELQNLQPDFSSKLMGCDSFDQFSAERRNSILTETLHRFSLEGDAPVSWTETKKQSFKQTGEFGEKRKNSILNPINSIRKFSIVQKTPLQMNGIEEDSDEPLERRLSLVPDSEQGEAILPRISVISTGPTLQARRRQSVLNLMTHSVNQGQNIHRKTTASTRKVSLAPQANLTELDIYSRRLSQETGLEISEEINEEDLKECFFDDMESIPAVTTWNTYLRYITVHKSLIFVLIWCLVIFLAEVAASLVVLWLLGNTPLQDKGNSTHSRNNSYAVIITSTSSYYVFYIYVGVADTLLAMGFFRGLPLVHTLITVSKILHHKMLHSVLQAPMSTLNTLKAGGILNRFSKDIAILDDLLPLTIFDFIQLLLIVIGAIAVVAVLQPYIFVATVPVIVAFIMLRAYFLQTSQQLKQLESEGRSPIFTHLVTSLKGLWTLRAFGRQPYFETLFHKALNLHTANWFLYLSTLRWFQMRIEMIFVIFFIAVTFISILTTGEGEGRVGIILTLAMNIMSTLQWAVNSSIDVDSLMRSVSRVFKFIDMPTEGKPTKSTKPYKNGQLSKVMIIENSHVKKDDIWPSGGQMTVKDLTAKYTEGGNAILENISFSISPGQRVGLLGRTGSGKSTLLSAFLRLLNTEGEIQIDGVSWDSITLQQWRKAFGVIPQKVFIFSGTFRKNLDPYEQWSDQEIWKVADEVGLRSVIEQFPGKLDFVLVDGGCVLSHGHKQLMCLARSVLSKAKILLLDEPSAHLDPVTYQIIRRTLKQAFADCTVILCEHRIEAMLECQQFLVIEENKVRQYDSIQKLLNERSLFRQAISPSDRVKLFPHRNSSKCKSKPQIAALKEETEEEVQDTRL

**Q.** For CC(C)c1cccc(-c2ccc(C(=O)NS(=O)(=O)c3ccc[nH]c3=O)c(N3C[C@@H](C)CC3(C)C)n2)c1 [Compound 2498, 6-(3-isopropylphenyl)-N-[(2-oxo-1H-pyridin-3-yl)sulfonyl]-2-[(4S)-2,2,4-trimethylpyrrolidin-1-yl]pyridine-3-carboxamide], which EC30 is on record?
**A.** The EC30 was < 3000 nM.

**Q.** For Cc1cccc(-c2cnc(N3CC(C)CC3(C)C)c(C(=O)NS(=O)(=O)c3cccc(N)n3)c2)c1 (stereo not drawn) [Compound 2184, N-[(6-amino-2-pyridyl)sulfonyl]-5-(m-tolyl)-2-(2,2,4-trimethylpyrrolidin-1-yl)pyridine-3-carboxamide], which EC30 is on record?
**A.** Its EC30 is < 3000 nM.

**Q.** How did the EC30 turn out when CC1CN(c2ncccc2C(=O)NS(=O)(=O)c2cccc(Nc3cccc(C(F)(F)F)c3)n2)C(C)(C)C1 (stereo not drawn) [Compound 2381, N—[[6-[3-(trifluoromethyl)anilino]-2-pyridyl]sulfonyl]-2-(2,2,4-trimethylpyrrolidin-1-yl)pyridine-3-carboxamide] was run?
**A.** The EC30 was < 3000 nM.

**Q.** For CC(C)COc1cc(F)cc(-c2ccc(C(=O)NS(=O)(=O)c3cccc(N)n3)c(N3CCC(O)CC3)n2)c1 [Compound 2323, N-[(6-amino-2-pyridyl)sulfonyl]-6-(3-fluoro-5-isobutoxy-phenyl)-2-(4-hydroxy-1-piperidyl)pyridine-3-carboxamide], which EC30 is on record?
**A.** Its EC30 is 3000 to 10000 nM.

**Q.** How did the EC30 turn out when CC1CN(c2ncccc2C(=O)NS(=O)(=O)c2cccc(OC3CC=CC3)n2)C(C)(C)C1 (stereo not drawn) [Compound 2317, N-[(6-cyclopent-3-en-1-yloxy-2-pyridyl)sulfonyl]-2-(2,2,4-trimethylpyrrolidin-1-yl)pyridine-3-carboxamide] was run?
**A.** The EC30 was < 3000 nM.

**Q.** For CC1CN(c2ncccc2C(=O)NS(=O)(=O)c2cccc(NCCc3ccccn3)n2)C(C)(C)C1 (stereo not drawn) [Compound 2359, N—[[6-[2-(2-pyridyl)ethylamino]-2-pyridyl]sulfonyl]-2-(2,2,4-trimethylpyrrolidin-1-yl)pyridine-3-carboxamide], which EC30 is on record?
**A.** Its EC30 is 3000 to 10000 nM.

**Q.** Which EC30 does the source give for CCOc1cccc(-c2ccc(C(=O)NS(=O)(=O)N3CC[C@H](N)C3)c(N3C[C@@H](C)CC3(C)C)n2)c1 [Compound 2570, N-[(3S)-3-aminopyrrolidin-1-yl]sulfonyl-6-(3-ethoxyphenyl)-2-[(4S)-2,2,4-trimethylpyrrolidin-1-yl]pyridine-3-carboxamide] here?
**A.** Its EC30 is 3000 to 10000 nM.

**Q.** Which EC30 does the source give for COc1ccc(F)cc1-c1ccc(C(=O)NS(=O)(=O)c2cccnc2N)c(N2C[C@@H](C)CC2(C)C)n1 [Compound 2189, N-[(2-amino-3-pyridyl)sulfonyl]-6-(5-fluoro-2-methoxy-phenyl)-2-[(4S)-2,2,4-trimethylpyrrolidin-1-yl]pyridine-3-carboxamide] here?
**A.** The EC30 was < 3000 nM.

**Q.** With CC1CN(c2ncccc2C(=O)NS(=O)(=O)c2cccc(Oc3ccc4nonc4c3)n2)C(C)(C)C1 (stereo not drawn) [Compound 2727] as the compound, how does the EC30 read?
**A.** Its EC30 is < 3000 nM.

**Q.** With CC(C)COc1cc(F)cc(-c2ccc(C(=O)NS(=O)(=O)c3cccc(N)n3)c(N3CC(F)(F)C3)n2)c1 [Compound 2155, N-[(6-amino-2-pyridyl)sulfonyl]-2-(3,3-difluoroazetidin-1-yl)-6-(3-fluoro-5-isobutoxy-phenyl)pyridine-3-carboxamide] as the compound, how does the EC30 read?
**A.** The EC30 was 3000 to 10000 nM.

**Q.** COc1ccc(CNc2cccc(S(=O)(=O)NC(=O)c3cccnc3N3CC(C)CC3(C)C)n2)cc1 (stereo not drawn) [Compound 2579, N—[[6-[(4-methoxyphenyl)methylamino]-2-pyridyl]sulfonyl]-2-(2,2,4-trimethylpyrrolidin-1-yl)pyridine-3-carboxamide] was tested. Which EC30 did it give?
**A.** The EC30 was < 3000 nM.

**Q.** CC1CN(c2ncccc2C(=O)NS(=O)(=O)c2cccc(OCc3ccc(Cl)c(Cl)c3)n2)C(C)(C)C1 (stereo not drawn) [Compound 2402, N—[[6-[(3,4-dichlorophenyl)methoxy]-2-pyridyl]sulfonyl]-2-(2,2,4-trimethylpyrrolidin-1-yl)pyridine-3-carboxamide] was tested. Which EC30 did it give?
**A.** The EC30 was < 3000 nM.

**Q.** CCOc1ccc(F)c(-c2ccc(C(=O)NS(=O)(=O)c3ccc[nH]c3=O)c(N3C[C@@H](C)CC3(C)C)n2)c1 [Compound 2138, 6-(5-ethoxy-2-fluoro-phenyl)-N-[(2-oxo-1H-pyridin-3-yl)sulfonyl]-2-[(4S)-2,2,4-trimethylpyrrolidin-1-yl]pyridine-3-carboxamide] was tested. Which EC30 did it give?
**A.** The EC30 was < 3000 nM.

**Q.** With C[C@@H]1CN(c2nc(C3=CCCN(C(=O)NC(C)(C)C)C3)ccc2C(=O)NS(=O)(=O)c2cccc(N)n2)C(C)(C)C1 [Compound 2568, N-[(6-amino-2-pyridyl)sulfonyl]-6-[1-(tert-butylcarbamoyl)-3,6-dihydro-2H-pyridin-5-yl]-2-[(4S)-2,2,4-trimethylpyrrolidin-1-yl]pyridine-3-carboxamide] as the compound, how does the EC30 read?
**A.** Its EC30 is 3000 to 10000 nM.

**Q.** CCCC(C)(C)Oc1cccc(S(=O)(=O)NC(=O)c2cccnc2N2CC(C)CC2(C)C)n1 (stereo not drawn) [Compound 2130, N—[[6-(1,1-dimethylbutoxy)-2-pyridyl]sulfonyl]-2-(2,2,4-trimethylpyrrolidin-1-yl)pyridine-3-carboxamide] was tested. Which EC30 did it give?
**A.** Its EC30 is < 3000 nM.

**Q.** With CC(C)COc1cc(F)cc(-c2ccc(C(=O)NS(=O)(=O)C3CCCNC3)c(N3C[C@@H](C)CC3(C)C)n2)c1 (stereo partly drawn) [Compound 2655, 6-(3-fluoro-5-isobutoxy-phenyl)-N-(3-piperidylsulfonyl)-2-[(4S)-2,2,4-trimethylpyrrolidin-1-yl]pyridine-3-carboxamide] as the compound, how does the EC30 read?
**A.** The EC30 was < 3000 nM.

same assay, conditions: Table 3; compounds of Table 1 as modulators of CFTR activity; protocol not stated

**Q.** Cc1cccc(C)c1Cn1nc(-c2cccc(F)c2)cc1C(=O)NS(=O)(=O)c1ccccc1 [Compound 166, N-(benzenesulfonyl)-2-[(2,6-dimethylphenyl)methyl]-5-(3-fluorophenyl)pyrazole-3-carboxamide] was tested. Which EC30 did it give?
**A.** Its EC30 is “+++ (“+++” means <3 uM)”.

**Q.** Which EC30 does the source give for CCC(C)(C)C1CCCN1c1nc(-c2cc(F)cc(OCC(C)C)c2)ccc1C(=O)NS(=O)(=O)c1cccc(N)n1 (stereo not drawn) [Compound 493, N-[(6-amino-2-pyridyl)sulfonyl]-2-[2-(1,1-dimethylpropyl)pyrrolidin-1-yl]-6-(3-fluoro-5-isobutoxy-phenyl)pyridine-3-carboxamide] here?
**A.** Its EC30 is “+++ (“+++” means <3 uM)”.

**Q.** How did the EC30 turn out when CC(C)(C)c1ccc(C(=O)NS(=O)(=O)c2cccc(N)n2)c(N2CCC[C@H](c3ccccc3)C2)n1 [Compound 626, N-[(6-amino-2-pyridyl)sulfonyl]-6-tert-butyl-2-[(3R)-3-phenyl-1-piperidyl]pyridine-3-carboxamide] was run?
**A.** Its EC30 is “+++ (“+++” means <3 uM)”.

**Q.** Which EC30 does the source give for CC(C)COc1cc(F)cc(-c2ccc(C(=O)NS(=O)(=O)c3cccc(N)n3)c(OCC3CC3(F)F)n2)c1 (stereo not drawn) [Compound 769, N-[(6-amino-2-pyridyl)sulfonyl]-2-[(2,2-difluorocyclopropyl)methoxy]-6-(3-fluoro-5-isobutoxy-phenyl)pyridine-3-carboxamide] here?
**A.** Its EC30 is “+++ (“+++” means <3 uM)”.

**Q.** For CC(C)COc1cc(F)cc(-c2ccc(C(=O)NS(=O)(=O)c3cccc(=O)[nH]3)c(N3CCC(C)(C)CC3)n2)c1 [Compound 775, 2-(4,4-dimethyl-1-piperidyl)-6-(3-fluoro-5-isobutoxy-phenyl)-N-[(6-oxo-1H-pyridin-2-yl)sulfonyl]pyridine-3-carboxamide], which EC30 is on record?
**A.** The EC30 was “+++ (“+++” means <3 uM)”.

**Q.** How did the EC30 turn out when COCC1CCCN(c2nc(-c3cc(F)cc(OCC(C)C)c3)ccc2C(=O)NS(=O)(=O)c2cccc(N)n2)C1 (stereo not drawn) [Compound 419, N-[(6-amino-2-pyridyl)sulfonyl]-6-(3-fluoro-5-isobutoxy-phenyl)-2-[3-(methoxymethyl)-1-piperidyl]pyridine-3-carboxamide] was run?
**A.** The EC30 was “+++ (“+++” means <3 uM)”.

**Q.** For Cc1cc(C)c(Oc2nc(C(C)(C)C)ccc2C(=O)NS(=O)(=O)c2cccc3[nH]ccc23)c(C)c1 [Compound 275, 6-tert-butyl-N-(1H-indol-4-ylsulfonyl)-2-(2,4,6-trimethylphenoxy)pyridine-3-carboxamide], which EC30 is on record?
**A.** Its EC30 is “+++ (“+++” means <3 uM)”.

**Q.** For CC(C)COc1cc(F)cc(-c2ccc(C(=O)NS(=O)(=O)c3cccc(N)n3)c(N3CC(c4ccccc4)CC3C)n2)c1 (stereo not drawn) [Compound 488, N-[(6-amino-2-pyridyl)sulfonyl]-6-(3-fluoro-5-isobutoxy-phenyl)-2-(2-methyl-4-phenyl-pyrrolidin-1-yl)pyridine-3-carboxamide], which EC30 is on record?
**A.** The EC30 was “+++ (“+++” means <3 uM)”.

**Q.** How did the EC30 turn out when CCOc1cc(F)cc(-c2ccc(C(=O)NS(=O)(=O)c3cc[nH]n3)c(Oc3c(C)cc(C)cc3C)n2)c1 [Compound 585, 6-(3-ethoxy-5-fluoro-phenyl)-N-(1H-pyrazol-3-ylsulfonyl)-2-(2,4,6-trimethylphenoxy)pyridine-3-carboxamide] was run?
**A.** The EC30 was “+++ (“+++” means <3 uM)”.

**Q.** For Cc1cc(C)c(Oc2nc(-c3cc(C(F)(F)F)nn3C)ccc2C(=O)NS(=O)(=O)c2cccc(N)n2)c(C)c1 [Compound 457, N-[(6-amino-2-pyridyl)sulfonyl]-6-[2-methyl-5-(trifluoromethyl)pyrazol-3-yl]-2-(2,4,6-trimethylphenoxy)pyridine-3-carboxamide], which EC30 is on record?
**A.** Its EC30 is “+++ (“+++” means <3 uM)”.

**Q.** Which EC30 does the source give for Cc1ccc(Oc2nc3c(cc2C(=O)NS(=O)(=O)c2ccc[nH]c2=O)CCCC3(C)C)c(C)c1 [Compound 634, 2-(2,4-dimethylphenoxy)-8,8-dimethyl-N-[(2-oxo-1H-pyridin-3-yl)sulfonyl]-6,7-dihydro-5H-quinoline-3-carboxamide] here?
**A.** The EC30 was “+++ (“+++” means <3 uM)”.

**Q.** Cc1cc(C)c(Oc2nc(-c3ccc4c(c3)OCCCO4)ccc2C(=O)NS(=O)(=O)c2cccc(N)n2)c(C)c1 [Compound 14, N-[(6-amino-2-pyridyl)sulfonyl]-6-(3,4-dihydro-2H-1,5-benzodioxepin-7-yl)-2-(2,4,6-trimethylphenoxy)pyridine-3-carboxamide] was tested. Which EC30 did it give?
**A.** Its EC30 is “+++ (“+++” means <3 uM)”.

**Q.** Which EC30 does the source give for Cc1cc(C)c(CN2CCCc3ccccc3C2C(=O)NS(=O)(=O)c2ccccc2)c(C)c1 (stereo not drawn) [Compound 674, N-(benzenesulfonyl)-2-[(2,4,6-trimethylphenyl)methyl]-1,3,4,5-tetrahydro-2-benzazepine-1-carboxamide] here?
**A.** Its EC30 is “+++ (“+++” means <3 uM)”.

**Q.** For Cc1cc(C)c(Oc2nc(-c3c[nH]nc3C(F)(F)F)ccc2C(=O)NS(=O)(=O)c2cccc(N)n2)c(C)c1 [Compound 582, N-[(6-amino-2-pyridyl)sulfonyl]-6-[3-(trifluoromethyl)-1H-pyrazol-4-yl]-2-(2,4,6-trimethylphenoxy)pyridine-3-carboxamide], which EC30 is on record?
**A.** Its EC30 is “++ (“++” means between 3 uM and 10 uM)”.
